Measurements: US9675592B2, “Methods and compositions for bacteria infections” (priority 2013, dated 2017)

How the values were obtained:
[1] = test system: test strain 923 pPvra-lux (USA300 MRSA); assay: Primary screen, relative growth in presence of oxacillin; settings: compound 10 μM with oxacillin 2 μg/mL, absorbance 24 h, <0.50 = dead cells = hit
[2] = test system: vraSR promoter (Pvra-lux reporter in strain 923); assay: Primary screen, relative luminescence (vraSR expression); settings: primary screen, compound 10 μM with oxacillin 2 μg/mL; <0.50 = vraSR repressed = hit

| Compound | RG avg (relative growth) [1] | RL avg (relative luminescence) [2] |
| --- | --- | --- |
| Cc1ccc(NCC(O)Cn2c3ccc(Br)cc3c3cc(Br)ccc32)cc1 (stereo not drawn) [F0191-4604] | −0.07 | −0.06 |
| O=C(Nc1nc(-c2ccccn2)cs1)c1cccc(Oc2ccccc2)c1 [F0447-264] | −0.03 | −0.05 |
| O=C(Nc1nc(-c2ccccn2)cs1)c1cc(Cl)ccc1Cl [F0447-277] | −0.06 | −0.11 |
| CCCCN(CC)S(=O)(=O)c1ccc(C(=O)Nc2nnc(-c3ccccc3Cl)o2)cc1 [F0559-36] | −0.08 | −0.16 |
| CC1CC(C)CN(S(=O)(=O)c2ccc(C(=O)Nc3nnc(-c4ccc(F)cc4)o3)cc2)C1 (stereo not drawn) [F0559-106] | −0.07 | −0.07 |
| CC1CN(S(=O)(=O)c2ccc(C(=O)Nc3nnc(-c4ccc(F)cc4)o3)cc2)CC(C)O1 (stereo not drawn) [F0559-107] | −0.05 | −0.06 |
| COc1ccccc1-c1nnc(NC(=O)c2ccc(S(=O)(=O)N(C)c3ccccc3)cc2)o1 [F0559-127] | −0.05 | −0.11 |
| C=CCN(CC=C)S(=O)(=O)c1ccc(C(=O)Nc2nnc(-c3ccccc3OC)o2)cc1 [F0559-129] | −0.08 | −0.07 |
| COc1ccccc1-c1nnc(NC(=O)c2ccc(S(=O)(=O)N(Cc3ccccc3)C(C)C)cc2)o1 [F0559-148] | 0.02 | −0.04 |
| COc1cccc(-c2nnc(NC(=O)c3ccc(S(=O)(=O)N(C)C4CCCCC4)cc3)o2)c1 [F0559-158] | 0.03 | −0.07 |
| COc1cccc(-c2nnc(NC(=O)c3ccc(S(=O)(=O)N4CCc5ccccc5C4)cc3)o2)c1 [F0559-171] | −0.06 | −0.11 |
| COc1cccc(-c2nnc(NC(=O)c3ccc(S(=O)(=O)N(Cc4ccccc4)C(C)C)cc3)o2)c1 [F0559-178] | −0.06 | −0.07 |
| C=CCN(CC=C)S(=O)(=O)c1ccc(C(=O)Nc2nnc(-c3ccc(OC)cc3)o2)cc1 [F0559-189] | −0.05 | −0.08 |
| CCN(Cc1ccccc1)S(=O)(=O)c1ccc(C(=O)Nc2nnc(-c3ccc(OC)cc3)o2)cc1 [F0559-206] | 0.19 | −0.11 |
| COc1cc(OC)cc(-c2nnc(NC(=O)c3ccc(S(=O)(=O)N(C)c4ccccc4)cc3)o2)c1 [F0559-246] | −0.03 | −0.08 |
| COc1cc(OC)cc(-c2nnc(NC(=O)c3ccc(S(=O)(=O)N(CC(C)C)CC(C)C)cc3)o2)c1 [F0559-264] | −0.04 | −0.10 |
| C=CCN(CC=C)S(=O)(=O)c1ccc(C(=O)Nc2nnc(-c3cc(OC)c(OC)c(OC)c3)o2)cc1 [F0559-279] | 0.40 | −0.09 |
| COc1cc(-c2nnc(NC(=O)c3ccc(S(=O)(=O)N(C)c4ccccc4)cc3)o2)cc(OC)c1OC [F0559-307] | −0.04 | −0.08 |
| COc1cc(-c2nnc(NC(=O)c3ccc(S(=O)(=O)N4CCCC4)cc3)o2)cc(OC)c1OC [F0559-311] | −0.06 | 0.02 |

| Compound | RG avg (relative growth) [1] | RL avg (relative luminescence) [2] |
| --- | --- | --- |
| COc1cc(-c2nnc(NC(=O)c3ccc(S(=O)(=O)N4CCCc5ccccc54)cc3)o2)cc(OC)c1OC [F0559-320] | 0.24 | −0.08 |
| COc1cc(-c2nnc(NC(=O)c3ccc(S(=O)(=O)N4CCc5ccccc5C4)cc3)o2)cc(OC)c1OC [F0559-321] | −0.03 | −0.09 |
| COc1cc(-c2nnc(NC(=O)c3ccc(S(=O)(=O)N(Cc4ccccc4)C(C)C)cc3)o2)cc(OC)c1OC [F0559-328] | 0.15 | 0.01 |
| O=C(Nc1nnc(-c2cccs2)o1)c1ccc(S(=O)(=O)N2CCCc3ccccc32)cc1 [F0559-350] | 0.43 | 0.11 |
| CC1CC(C)CN(S(=O)(=O)c2ccc(C(=O)Nc3nnc(-c4ccc(Cl)s4)o3)cc2)C1 (stereo not drawn) [F0559-376] | −0.08 | −0.02 |
| CC1CN(S(=O)(=O)c2ccc(C(=O)Nc3nnc(-c4ccc(Cl)s4)o3)cc2)CC(C)O1 (stereo not drawn) [F0559-377] | −0.08 | −0.09 |
| CC1(C)COCN1S(=O)(=O)c1ccc(C(=O)Nc2nnc(-c3ccc(Cl)s3)o2)cc1 [F0559-390] | −0.06 | −0.11 |
| COc1ccc(-c2nnc(NC(=O)c3ccc(S(=O)(=O)N(C)Cc4ccccc4)cc3)o2)c(OC)c1 [F0559-398] | −0.07 | −0.11 |
| O=C(Nc1nnc(-c2ccc3c(c2)OCCO3)o1)c1ccc(C(=O)c2ccccc2)cc1 [F0608-19] | −0.02 | −0.12 |
| O=C(Nc1nnc(-c2ccc3c(c2)OCCO3)o1)c1cc(-c2ccccc2)nc2ccccc12 [F0608-46] | −0.06 | −0.10 |
| CC1CCCCN1S(=O)(=O)c1ccc(C(=O)Nc2nnc(-c3ccc4c(c3)OCCO4)o2)cc1 (stereo not drawn) [F0608-71] | −0.03 | 0.01 |
| O=C(Nc1nnc(-c2ccc3c(c2)OCCO3)o1)c1cccc(Cl)c1 [F0608-123] | −0.02 | −0.04 |
| O=C(Nc1nnc(C2=COCCO2)o1)c1cc(Cl)cc(Cl)c1 [F0608-258] | −0.05 | −0.06 |
| O=C(Nc1nnc(-c2ccco2)o1)c1ccc(-c2ccccc2)cc1 [F0608-410] | −0.07 | −0.07 |
| O=C(Nc1nnc(-c2ccco2)o1)c1ccc(S(=O)(=O)N2CCCc3ccccc32)cc1 [F0608-447] | −0.05 | −0.02 |
| O=C(Nc1nnc(-c2ccco2)o1)c1cc(-c2ccccc2)nc2ccccc12 [F0608-448] | 0.19 | −0.04 |
| O=C(Nc1nnc(-c2ccco2)o1)c1ccc(Oc2ccccc2)cc1 [F0608-491] | −0.06 | −0.11 |
| CCN(CC)S(=O)(=O)c1ccc(C(=O)Nc2nnc(-c3ccc4c(c3)CCCC4)o2)cc1 [F0608-543] | −0.02 | −0.08 |
| O=C(Nc1nnc(-c2ccc3c(c2)CCCC3)o1)c1cccs1 [F0608-554] | −0.04 | −0.08 |

| Compound | RG avg (relative growth) [1] | RL avg (relative luminescence) [2] |
| --- | --- | --- |
| O=C(Nc1nnc(-c2ccc3c(c2)CCCC3)o1)c1ccc(S(=O)(=O)N2CCOCC2)cc1 [F0608-560] | −0.07 | −0.07 |
| O=C(Nc1nnc(-c2ccc3c(c2)CCCC3)o1)c1nc2ccccc2s1 [F0608-570] | −0.05 | −0.07 |
| O=C(Nc1nnc(-c2ccc3c(c2)CCCC3)o1)c1cccc(C(F)(F)F)c1 [F0608-575] | −0.02 | −0.09 |
| O=C(Nc1nnc(-c2ccc3c(c2)CCCC3)o1)c1ccc2c(c1)OCCO2 [F0608-601] | −0.05 | −0.12 |
| Cc1ccccc1C(=O)Nc1nnc(-c2ccc3c(c2)CCCC3)o1 [F0608-614] | 0.08 | −0.05 |
| O=C(Nc1nnc(-c2ccc3c(c2)CCCC3)o1)c1cccc(Cl)c1 [F0608-659] | −0.05 | −0.08 |
| O=C(Nc1nnc(-c2ccc3c(c2)CCCC3)o1)c1ccc(Cl)cc1Cl [F0608-661] | 0.11 | −0.04 |
| O=C(Nc1nnc(-c2ccc3c(c2)CCCC3)o1)c1ccc(Cl)s1 [F0608-662] | −0.07 | −0.10 |
| O=C(COc1ccc(Cl)cc1)Nc1nnc(-c2ccc3c(c2)CCCC3)o1 [F0608-664] | −0.04 | −0.01 |
| O=C(Nc1nnc(-c2ccc3c(c2)CCCC3)o1)c1sc2ccccc2c1Cl [F0608-665] | 0.19 | −0.01 |
| O=C(Nc1nnc(-c2ccc3c(c2)CCCC3)o1)c1cc(Cl)sc1Cl [F0608-668] | 0.02 | −0.06 |
| O=C(Nc1nnc(C2COc3ccccc3O2)o1)c1ccc(S(=O)(=O)N2CCCc3ccccc32)cc1 (stereo not drawn) [F0608-715] | −0.01 | −0.05 |
| O=C(Nc1nnc(C2COc3ccccc3O2)o1)c1ccc(S(=O)(=O)N2CCc3ccccc3C2)cc1 (stereo not drawn) [F0608-728] | −0.02 | −0.01 |
| CC1CCCCN1S(=O)(=O)c1ccc(C(=O)Nc2nnc(C3COc4ccccc4O3)o2)cc1 (stereo not drawn) [F0608-741] | −0.02 | −0.04 |
| O=C(Nc1nnc(-c2ccccn2)o1)c1c(F)cccc1F [F0608-895] | 0.03 | −0.06 |
| O=C(Nc1nnc(-c2ccccn2)o1)c1cc(Cl)cc(Cl)c1 [F0608-928] | −0.01 | 0.07 |
| O=C(Nc1nnc(-c2cccnc2)o1)c1cccc(Br)c1 [F0608-950] | −0.01 | −0.14 |
| O=C(Nc1nnc(-c2cccnc2)o1)c1cc(Cl)cc(Cl)c1 [F0608-1062] | −0.04 | −0.10 |
| O=C(Nc1nnc(-c2ccncc2)o1)c1ccc(-c2ccccc2)cc1 [F0608-1080] | 0.03 | −0.04 |
